{
  "source": "patent US20260345619A1",
  "about": "(Principia Biopharma Inc., priority 2023, published 2026)",
  "experiment": "Asthma Quality of Life Questionnaire with Standardized Activities (AQLQ(S))",
  "assay_type": "in vivo, human",
  "conditions": "mITT",
  "excerpt": "The AQLQ(S) is a self-administered patient reported outcome to measure the functional impairments that are most troublesome to adolescents and adults ≥12 years of age as a result of their asthma.\nAsthma Quality of Life Questionnaire with Standardized Activities (AQLQ(S)) self-administered (≥12 years)\nThe AQLQ(S) was designed as a self-administered patient reported outcome to measure the functional impairments that are most troublesome to adolescents and adults ≥12 years of age as a result of their asthma. The instrument is comprised of 32 items, each rated on a 7-point Likert scales from 1 to 7. The AQLQ(S) has 4 domains. The domains and the number of items in each domain are as follows: • Symptoms (12 items) • Activity limitation (11 items) • Emotional function (5 items) • Environmental stimuli (4 items)\nA global score is calculated ranging from 1 to 7 and a score by domain. Higher scores indicate better quality of life. […] Patients were to complete the questionnaire in an electronic diary during on-site visits.\nSecondary endpoints included pre-bronchodilator FEV1 change from baseline at EOT, ACQ-5 score change from baseline, and AQLQ score change from baseline. Other secondary and exploratory endpoints are described in Table 2.",
  "data": [
    {"smiles": "CC(C)(C=C(C#N)C(=O)N1CCC[C@@H](n2nc(-c3ccc(Oc4ccccc4)cc3F)c3c(N)ncnc32)C1)N1CCN(C2COC2)CC1", "note": "(mixture of isomers) [rilzabrutinib, (R)-2-[3-[4-amino-3-(2-fluoro-4-phenoxy-phenyl)pyrazolo[3,4-d]pyrimidin-1-yl]piperidine-1-carbonyl]-4-methyl-4-[4-(oxetan-3-yl)piperazin-1-yl]pent-2-enenitrile]", "values": [
      {"measurement": "AQLQ(S) Activity limitation score, Mean", "setting": "Week 4, 400 mg TID", "value": 5.15},
      {"measurement": "AQLQ(S) Activity limitation score, Median", "setting": "Week 4, 400 mg TID", "value": 5.18},
      {"measurement": "AQLQ(S) Activity limitation score, change from baseline, LS Mean", "setting": "Week 4, 400 mg TID", "value": 0.34},
      {"measurement": "AQLQ(S) Activity limitation score, change from baseline, Mean", "setting": "Week 4, 400 mg TID", "value": 0.16},
      {"measurement": "AQLQ(S) Activity limitation score, change from baseline, Median", "setting": "Week 4, 400 mg TID", "value": 0.09},
      {"measurement": "AQLQ(S) Emotional function score, Mean", "setting": "Week 4, 400 mg TID", "value": 5.37},
      {"measurement": "AQLQ(S) Emotional function score, Median", "setting": "Week 4, 400 mg TID", "value": 5.40},
      {"measurement": "AQLQ(S) Emotional function score, change from baseline, LS Mean", "setting": "Week 4, 400 mg TID", "value": 0.35},
      {"measurement": "AQLQ(S) Emotional function score, change from baseline, Mean", "setting": "Week 4, 400 mg TID", "value": 0.22},
      {"measurement": "AQLQ(S) Emotional function score, change from baseline, Median", "setting": "Week 4, 400 mg TID", "value": 0.20},
      {"measurement": "AQLQ(S) Environmental stimuli score, Mean", "setting": "Week 4, 400 mg TID", "value": 4.78},
      {"measurement": "AQLQ(S) Environmental stimuli score, change from baseline, LS Mean", "setting": "Week 4, 400 mg TID", "value": 0.30},
      {"measurement": "AQLQ(S) Environmental stimuli score, change from baseline, Mean", "setting": "Week 4, 400 mg TID", "value": 0.12},
      {"measurement": "AQLQ(S) Environmental stimuli score, change from baseline, Median", "setting": "Week 4, 400 mg TID", "value": 0.25},
      {"measurement": "AQLQ(S) Global score, Mean", "setting": "Week 4, 400 mg TID", "value": 5.16},
      {"measurement": "AQLQ(S) Global score, Median", "setting": "Week 4, 400 mg TID", "value": 5.03},
      {"measurement": "AQLQ(S) Global score, change from baseline, LS Mean", "setting": "Week 4, 400 mg TID", "value": 0.33},
      {"measurement": "AQLQ(S) Global score, change from baseline, Mean", "setting": "Week 4, 400 mg TID", "value": 0.19},
      {"measurement": "AQLQ(S) Global score, change from baseline, Median", "setting": "Week 4, 400 mg TID", "value": 0.13},
      {"measurement": "AQLQ(S) Symptoms score, Mean", "setting": "Week 4, 400 mg TID", "value": 5.19},
      {"measurement": "AQLQ(S) Symptoms score, Median", "setting": "Week 4, 400 mg TID", "value": 5.08},
      {"measurement": "AQLQ(S) Symptoms score, change from baseline, LS Mean", "setting": "Week 4, 400 mg TID", "value": 0.38},
      {"measurement": "AQLQ(S) Symptoms score, change from baseline, Mean", "setting": "Week 4, 400 mg TID", "value": 0.22},
      {"measurement": "AQLQ(S) Symptoms score, change from baseline, Median", "setting": "Week 4, 400 mg TID", "value": 0.25},
      {"measurement": "AQLQ(S) Emotional function score, change from baseline, LS Mean Diff vs. placebo", "setting": "Week 4, 400 mg TID, 95% CI −0.12, 0.54", "value": 0.21},
      {"measurement": "AQLQ(S) Symptoms score, change from baseline, LS Mean Diff vs. placebo", "setting": "Week 4, 400 mg TID, 95% CI −0.14, 0.44", "value": 0.15},
      {"measurement": "AQLQ(S) Global score, change from baseline, LS Mean Diff vs. placebo", "setting": "Week 4, 400 mg TID, 95% CI −0.18, 0.36", "value": 0.09},
      {"measurement": "AQLQ(S) Activity limitation score, change from baseline, LS Mean Diff vs. placebo", "setting": "Week 4, 400 mg TID, 95% CI −0.20, 0.35", "value": 0.08},
      {"measurement": "AQLQ(S) Environmental stimuli score, change from baseline, LS Mean Diff vs. placebo", "setting": "Week 4, 400 mg TID, 95% CI −0.37, 0.30", "value": "−0.03"},
      {"measurement": "AQLQ(S) Activity limitation score, Mean", "setting": "Week 8, 400 mg BID", "value": 5.72},
      {"measurement": "AQLQ(S) Activity limitation score, Median", "setting": "Week 8, 400 mg BID", "value": 5.91},
      {"measurement": "AQLQ(S) Activity limitation score, change from baseline, LS Mean", "setting": "Week 8, 400 mg BID", "value": 0.89},
      {"measurement": "AQLQ(S) Activity limitation score, change from baseline, Mean", "setting": "Week 8, 400 mg BID", "value": 0.96},
      {"measurement": "AQLQ(S) Activity limitation score, change from baseline, Median", "setting": "Week 8, 400 mg BID", "value": 0.82},
      {"measurement": "AQLQ(S) Emotional function score, Mean", "setting": "Week 8, 400 mg BID", "value": 6.12},
      {"measurement": "AQLQ(S) Emotional function score, Median", "setting": "Week 8, 400 mg BID", "value": 6.20},
      {"measurement": "AQLQ(S) Emotional function score, change from baseline, LS Mean", "setting": "Week 8, 400 mg BID", "value": 1.06},
      {"measurement": "AQLQ(S) Emotional function score, change from baseline, Mean", "setting": "Week 8, 400 mg BID", "value": 0.87},
      {"measurement": "AQLQ(S) Emotional function score, change from baseline, Median", "setting": "Week 8, 400 mg BID", "value": 0.60},
      {"measurement": "AQLQ(S) Environmental stimuli score, Mean", "setting": "Week 8, 400 mg BID", "value": 5.19},
      {"measurement": "AQLQ(S) Environmental stimuli score, change from baseline, LS Mean", "setting": "Week 8, 400 mg BID", "value": 0.66},
      {"measurement": "AQLQ(S) Environmental stimuli score, change from baseline, Mean", "setting": "Week 8, 400 mg BID", "value": 0.73},
      {"measurement": "AQLQ(S) Environmental stimuli score, change from baseline, Median", "setting": "Week 8, 400 mg BID", "value": 0.50},
      {"measurement": "AQLQ(S) Global score, Mean", "setting": "Week 8, 400 mg BID", "value": 5.79},
      {"measurement": "AQLQ(S) Global score, Median", "setting": "Week 8, 400 mg BID", "value": 5.88},
      {"measurement": "AQLQ(S) Global score, change from baseline, LS Mean", "setting": "Week 8, 400 mg BID", "value": 0.92},
      {"measurement": "AQLQ(S) Global score, change from baseline, Mean", "setting": "Week 8, 400 mg BID", "value": 0.90},
      {"measurement": "AQLQ(S) Global score, change from baseline, Median", "setting": "Week 8, 400 mg BID", "value": 0.63},
      {"measurement": "AQLQ(S) Symptoms score, Mean", "setting": "Week 8, 400 mg BID", "value": 5.93},
      {"measurement": "AQLQ(S) Symptoms score, Median", "setting": "Week 8, 400 mg BID", "value": 6.00},
      {"measurement": "AQLQ(S) Symptoms score, change from baseline, LS Mean", "setting": "Week 8, 400 mg BID", "value": 0.99},
      {"measurement": "AQLQ(S) Symptoms score, change from baseline, Mean", "setting": "Week 8, 400 mg BID", "value": 0.91},
      {"measurement": "AQLQ(S) Symptoms score, change from baseline, Median", "setting": "Week 8, 400 mg BID", "value": 0.83},
      {"measurement": "AQLQ(S) Environmental stimuli score, change from baseline, LS Mean Diff vs. placebo", "setting": "Week 8, 400 mg BID, 95% CI 0.03, 1.33", "value": 0.68},
      {"measurement": "AQLQ(S) Symptoms score, change from baseline, LS Mean Diff vs. placebo", "setting": "Week 8, 400 mg BID, 95% CI 0.35, 1.18", "value": 0.76},
      {"measurement": "AQLQ(S) Global score, change from baseline, LS Mean Diff vs. placebo", "setting": "Week 8, 400 mg BID, 95% CI 0.39, 1.20", "value": 0.79},
      {"measurement": "AQLQ(S) Activity limitation score, change from baseline, LS Mean Diff vs. placebo", "setting": "Week 8, 400 mg BID, 95% CI 0.39, 1.21", "value": 0.80},
      {"measurement": "AQLQ(S) Emotional function score, change from baseline, LS Mean Diff vs. placebo", "setting": "Week 8, 400 mg BID, 95% CI 0.42, 1.54", "value": 0.98},
      {"measurement": "AQLQ(S) Activity limitation score, Mean", "setting": "Week 8, 400 mg TID", "value": 5.28},
      {"measurement": "AQLQ(S) Activity limitation score, Median", "setting": "Week 8, 400 mg TID", "value": 5.27},
      {"measurement": "AQLQ(S) Activity limitation score, change from baseline, LS Mean", "setting": "Week 8, 400 mg TID", "value": 0.42},
      {"measurement": "AQLQ(S) Activity limitation score, change from baseline, Mean", "setting": "Week 8, 400 mg TID", "value": 0.29},
      {"measurement": "AQLQ(S) Activity limitation score, change from baseline, Median", "setting": "Week 8, 400 mg TID", "value": 0.36},
      {"measurement": "AQLQ(S) Emotional function score, Mean", "setting": "Week 8, 400 mg TID", "value": 5.52},
      {"measurement": "AQLQ(S) Emotional function score, Median", "setting": "Week 8, 400 mg TID", "value": 5.40},
      {"measurement": "AQLQ(S) Emotional function score, change from baseline, LS Mean", "setting": "Week 8, 400 mg TID", "value": 0.51},
      {"measurement": "AQLQ(S) Emotional function score, change from baseline, Mean", "setting": "Week 8, 400 mg TID", "value": 0.37},
      {"measurement": "AQLQ(S) Emotional function score, change from baseline, Median", "setting": "Week 8, 400 mg TID", "value": 0.40},
      {"measurement": "AQLQ(S) Environmental stimuli score, Mean", "setting": "Week 8, 400 mg TID", "value": 4.90},
      {"measurement": "AQLQ(S) Environmental stimuli score, change from baseline, LS Mean", "setting": "Week 8, 400 mg TID", "value": 0.36},
      {"measurement": "AQLQ(S) Environmental stimuli score, change from baseline, Mean", "setting": "Week 8, 400 mg TID", "value": 0.24},
      {"measurement": "AQLQ(S) Environmental stimuli score, change from baseline, Median", "setting": "Week 8, 400 mg TID", "value": 0.25}
    ]}
  ]
}
